Reference: PMC6272230, “Uses of 3-(2-Bromoacetyl)-2H-chromen-2-one in the Synthesis of Heterocyclic Compounds Incorporating Coumarin: Synthesis, Characterization and Cytotoxicity” (Molecules, 2015)

Columns and labels:
[1] = In vitro cytotoxicity against normal fibroblast cells WI38; format: cell-based; details: human, concentration producing 50% reduction in cell growth
Experimental: (§1) The heterocyclic compounds, prepared in this study, were evaluated according to standard protocols for their in vitro cytotoxicity against six human cancer cell lines including cells derived from human gastric cancer (NUGC), human colon cancer (DLD1), human liver cancer (HA22T and HEPG2), nasopharyngeal carcinoma (HONE1), human breast cancer (MCF) and normal fibroblast cells (WI38). For comparison purposes, CHS 828, a pyridyl cyanoguanidine, was used as a standard antitumor drug (Figure 2). […] All the synthesized compounds were tested for their cytotoxicity against normal fibroblast cells.
(§2) Fetal bovine serum (FBS) and L-glutamine, were purchased from Gibco Invitrogen Co. (Scotland, UK). RPMI-1640 medium was purchased from Cambrex (East Rutherford, NJ, USA). Dimethyl sulfoxide (DMSO), CHS 828, penicillin, streptomycin and sulforhodamine B (SRB) were purchased from Sigma Chemical Co. (Saint Louis, MO, USA).
(§3) Cell cultures were obtained from the European Collection of Cell Cultures (ECACC, Salisbury, UK) and human gastric cancer (NUGC), human colon cancer (DLD1), human liver cancer (HA22T and HEPG2), human breast cancer (MCF), nasopharyngeal carcinoma (HONE1) and normal fibroblast cells (WI38) were kindly provided by the National Cancer Institute (NCI, Cairo, Egypt). They were grown as a monolayer and routinely maintained in RPMI-1640 medium supplemented with 5% heat inactivated FBS, 2 mM glutamine and antibiotics (penicillin 100 U/mL, streptomycin 100 µg/mL) at 37 °C in a humidified atmosphere containing 5% CO2. Exponentially growing cells were obtained by plating 1.5 × 10^5 cells/mL for the six human cancer cell lines followed by 24 h of incubation. The effect of the vehicle solvent (DMSO) on the growth of these cell lines was evaluated in all the experiments by exposing untreated control cells to the maximum concentration (0.5%) of DMSO used in each assay.

[2] = system: human breast cancer (MCF); assay: In vitro cytotoxicity against MCF cells; format: cell-based; details: MCF, breast cancer, concentration producing 50% reduction in cell growth, read-out: Cytotoxicity (IC50 in nM) MCF
Experimental: as §1, §2, §3

[3] = system: human gastric cancer (NUGC); assay: In vitro cytotoxicity against NUGC cells; format: cell-based; details: gastric cancer, concentration producing 50% reduction in cell growth, read-out: Cytotoxicity (IC50 in nM) NUGC
Experimental: as §1, §2, §3

[4] = system: human colon cancer (DLD1); assay: In vitro cytotoxicity against DLD1 cells; format: cell-based; details: DLD-1, DLDI, colon cancer, concentration producing 50% reduction in cell growth, read-out: Cytotoxicity (IC50 in nM) DLDI
Experimental: as §1, §2, §3

[5] = system: human liver cancer (HA22T); assay: In vitro cytotoxicity against HA22T cells; format: cell-based; details: liver cancer, concentration producing 50% reduction in cell growth, read-out: Cytotoxicity (IC50 in nM) HA22T
Experimental: as §1, §2, §3

[6] = system: human liver cancer (HEPG2); assay: In vitro cytotoxicity against HEPG2 cells; format: cell-based; details: HEPG2, liver cancer, concentration producing 50% reduction in cell growth, read-out: Cytotoxicity (IC50 in nM) HEPG2
Experimental: as §1, §2, §3

[7] = system: nasopharyngeal carcinoma (HONE1); assay: In vitro cytotoxicity against HONE1 cells; format: cell-based; details: Homo sapiens; HONE1, nasopharyngeal carcinoma; concentration producing 50% reduction in cell growth; read-out: Cytotoxicity (IC50 in nM) HONE1
Experimental: as §1, §2, §3

Row | SMILES | melting point [°C] | IC50 [1] [nM] | IC50 [2] [nM] | IC50 [3] [nM] | IC50 [4] [nM] | IC50 [5] [nM] | IC50 [6] [nM] | IC50 [7] [nM]
1 | N#CC1=C(N)NC(c2cc3ccccc3oc2=O)=C(Br)C1c1ccccc1 (centres unmarked) [Compound 7a, 2-Amino-5-bromo-6-(2-oxo-2H-chromen-3-yl)-4-phenyl-1,4-dihydropyridine-3-carbonitrile] | 171 to 173 | 379 | 463 | 38 | 893 | 166 | 399 | 423
2 | N#CC1=C(N)NC(c2cc3ccccc3oc2=O)=C(C#N)C1c1ccccc1 (centres unmarked) [Compound 11a, 2-Amino-6-(2-oxo-2H-chromen-3-yl)-4-phenyl-1,4-dihydropyridine-3,5-dicarbonitrile] | 133 to 135 | 128 | 4940 | 680 | 222 | 314 | 3350 | 2320
3 | N#CC1=C(N)NC(c2cc3ccccc3oc2=O)=C(C#N)C1c1ccco1 (centres unmarked) [Compound 11d, 2-Amino-4-(furan-2-yl)-6-(2-oxo-2H-chromen-3-yl)-1,4-dihydropyridine-3,5-dicarbonitrile] | 168 to 170 | 652 | 40 | 649 | 3460 | 137 | 3120 | 1190

The next lines start with results.

Row | melting point [°C] | SMILES | IC50 [1] [nM] | IC50 [2] [nM] | IC50 [3] [nM] | IC50 [4] [nM] | IC50 [5] [nM] | IC50 [6] [nM] | IC50 [7] [nM]
4 | 193 to 195 | COc1ccc(C2C(Br)=C(c3cc4ccccc4oc3=O)OC(N)=C2C#N)cc1 (centres unmarked) [Compound 6b, 2-Amino-5-bromo-4-(4-methoxyphenyl)-6-(2-oxo-2H-chromen-3-yl)-4H-pyran-3-carbonitrile] | 280 | 2850 | 3320 | 2670 | 2260 | 169 | 2850
5 | 178 to 180 | N#CC1=C(N)OC(c2cc3ccccc3oc2=O)=C(Br)C1c1ccc(Cl)cc1 (centres unmarked) [Compound 6c, 2-Amino-5-bromo-4-(4-chlorophenyl)-6-(2-oxo-2H-chromen-3-yl)-4H-pyran-3-carbonitrile] | 480 | 89 | 38 | 283 | 2270 | 683 | 1670
6 | 164 to 166 | COc1ccc(C2C(Br)=C(c3cc4ccccc4oc3=O)NC(N)=C2C#N)cc1 (centres unmarked) [Compound 7b, 2-Amino-5-bromo-4-(4-methoxyphenyl)-6-(2-oxo-2H-chromen-3-yl)-1,4-dihydropyridine-3-carbonitrile] | 160 | 409 | 782 | 532 | 783 | 738 | 180
7 | 173 to 175 | N#CC1=C(N)OC(c2cc3ccccc3oc2=O)=C(C#N)C1c1ccccc1 (centres unmarked) [Compound 10a, 2-Amino-6-(2-oxo-2H-chromen-3-yl)-4-phenyl-4H-pyran-3,5-dicarbonitrile] | 417 | 2530 | 537 | 440 | 1160 | 2770 | 6270
